Results as given in patent US20230130134A1, “METHOD OF TREATING VIRAL INFECTIONS WITH HEXOSE TYPE MONOSACCHARIDES AND ANALOGS THEREOF” (Board of Regents, The University of Texas System, priority 2020, published 2023).

Experiment: Tissue distribution of tritium-labeled WP1122 and 2-DG in lungs after intravenous administration (liquid scintillation counting)
Format: in vivo
Settings: male Sprague-Dawley rats; for Detection of 2-DG and metabolites in lungs: i.v., 15, 30, 60 min, 6 and 24 hours post-dose
Procedure: Experimental procedures. The pharmacokinetic and tissue organ distribution of WP1122 and 2-DG labeled with tritium was analyzed in male Sprague-Dawley rats. Animals (n=3 per timepoint) were dosed intravenously with 2-DG or WP1122 at equimolar dose 0.2 and 0.13 g/kg for WP1122 and 2-DG respectively. The animals were euthanized at 15, 30, 60 min and 6- and 24-hours post-dose. The organs were extracted, rinsed with PBS and radioactivity was measured using Liquid Scintillation Counting (LCS).

SMILES	Detection of 2-DG and metabolites in lungs	Presence of metabolites in lungs compared with 2-DG administration (i.v., all time points including 24 hours after administration)	Highest concentration of radiolabeled compounds in lungs relative to radioactivity from 2-DG administration (i.v., equimolar 0.2 g/kg WP1122 vs 0.13 g/kg 2-DG, 15 min post injection)
OC[C@H]1OC(O)C[C@@H](O)[C@@H]1O (stereo partly drawn) [Example 2-DG, (4R,5S,6R)-6-(hydroxymethyl)tetrahydro-2H-pyran-2,4,5-triol, reference compound]	detected in lungs in all tested time-points	–	–
CC(=O)OC[C@H]1OC(O)C[C@@H](OC(C)=O)[C@@H]1O (stereo partly drawn) [WP1122, ((2R,3S,4R)-4-acetoxy-3,6-dihydroxytetrahydro-2H-pyran-2-yl)methyl acetate]	detected in lungs in all tested time-points	Increased presence of metabolites	nearly three times higher
